According to patent US20190256474A1, “N-PHENYL-2-(3-PHENYL-6-OXO-1,6-DIHYDROPYRIDAZIN-1-YL)ACETAMIDE DERIVATIVES FOR TREATING CYSTIC FIBROSIS” (Proteostasis Therapeutics, Inc., priority 2016, published 2019):

Biological target: T1, ΔF508-CFTR (Homo sapiens, UniProt P13569, DEL508-508)
T1 construct: Primary lung epithelial cells homozygous for the Cystic Fibrosis-causing ΔF508 mutation were differentiated; endogenous in cells; host or cells: primary human bronchial epithelial cells (hBE), ΔF508/ΔF508
Test: hBE equivalent current (Ieq) assay, CFTR activity
Assay type: cell-based
Details: relative to a CFTR amplifier at 3 μM, ΔF508 homozygous hBE, 24 h treatment; for Activity 10 μM: compound at 10 μM; for Activity 3 μM: compound at 3 μM
Procedure: Primary lung epithelial cells homozygous for the Cystic Fibrosis-causing ΔF508 mutation were differentiated for a minimum of 4 weeks in an air-liquid interface on Costar 24 well HTS filter plates prior to the equivalent current (Ieq) measurements. Cells were apically mucus-washed for 30 minutes 24 h prior to treatment with compounds. The basolateral media was removed and replaced with media containing the compound of interest diluted to its final concentration from DMSO stocks. Treated cells were incubated at 37° C. and 5% CO2 for 24 hours. At the end of the treatment period, the media was changed to the Ieq experimental solution for 2 hours before the experiment and plates are maintained in a CO2-free incubator during this period. The plates containing the cells were then placed in pre-warmed heating blocks at 36° C.±0.5 for 15 minutes before measurements are taken. The transepithelial voltage (VT) and conductance (GT) were measured using a custom 24 channel current clamp (TECC-24) with 24 well electrode manifold. The Ieq assay measurements were made following additions with standardized time periods:
1. The baseline VT and GT values were measured for approximately 20 minutes.
2. Benzamil was added to block ENaC for 15 minutes.
3. Forskolin plus VX-770 were added to maximally activate ΔF508-CFTR for 27 minutes.
4. Bumetanide was added to inhibit the NaK2Cl cotransporter and shut-off secretion of chloride.
The activity data captured was the area under the curve (AUC) for the traces of the equivalent chloride current. The AUC was collected from the time of the forskolin/VX-770 addition until the inhibition by bumetanide addition. Correction in response to compound treatment was scored as the increase in the AUC for compound-treated samples over that of vehicle-treated samples.
The results are shown below in Table 1. + indicates activity <150% of a CFTR amplifier with compound at concentration shown and amplifier at 3 μM; ++ indicates activity >150% of a CFTR amplifier with compound at concentration shown and amplifier at 3 μM.

T1 sequence (P13569 with tags, fused parts or gaps DEL508-508): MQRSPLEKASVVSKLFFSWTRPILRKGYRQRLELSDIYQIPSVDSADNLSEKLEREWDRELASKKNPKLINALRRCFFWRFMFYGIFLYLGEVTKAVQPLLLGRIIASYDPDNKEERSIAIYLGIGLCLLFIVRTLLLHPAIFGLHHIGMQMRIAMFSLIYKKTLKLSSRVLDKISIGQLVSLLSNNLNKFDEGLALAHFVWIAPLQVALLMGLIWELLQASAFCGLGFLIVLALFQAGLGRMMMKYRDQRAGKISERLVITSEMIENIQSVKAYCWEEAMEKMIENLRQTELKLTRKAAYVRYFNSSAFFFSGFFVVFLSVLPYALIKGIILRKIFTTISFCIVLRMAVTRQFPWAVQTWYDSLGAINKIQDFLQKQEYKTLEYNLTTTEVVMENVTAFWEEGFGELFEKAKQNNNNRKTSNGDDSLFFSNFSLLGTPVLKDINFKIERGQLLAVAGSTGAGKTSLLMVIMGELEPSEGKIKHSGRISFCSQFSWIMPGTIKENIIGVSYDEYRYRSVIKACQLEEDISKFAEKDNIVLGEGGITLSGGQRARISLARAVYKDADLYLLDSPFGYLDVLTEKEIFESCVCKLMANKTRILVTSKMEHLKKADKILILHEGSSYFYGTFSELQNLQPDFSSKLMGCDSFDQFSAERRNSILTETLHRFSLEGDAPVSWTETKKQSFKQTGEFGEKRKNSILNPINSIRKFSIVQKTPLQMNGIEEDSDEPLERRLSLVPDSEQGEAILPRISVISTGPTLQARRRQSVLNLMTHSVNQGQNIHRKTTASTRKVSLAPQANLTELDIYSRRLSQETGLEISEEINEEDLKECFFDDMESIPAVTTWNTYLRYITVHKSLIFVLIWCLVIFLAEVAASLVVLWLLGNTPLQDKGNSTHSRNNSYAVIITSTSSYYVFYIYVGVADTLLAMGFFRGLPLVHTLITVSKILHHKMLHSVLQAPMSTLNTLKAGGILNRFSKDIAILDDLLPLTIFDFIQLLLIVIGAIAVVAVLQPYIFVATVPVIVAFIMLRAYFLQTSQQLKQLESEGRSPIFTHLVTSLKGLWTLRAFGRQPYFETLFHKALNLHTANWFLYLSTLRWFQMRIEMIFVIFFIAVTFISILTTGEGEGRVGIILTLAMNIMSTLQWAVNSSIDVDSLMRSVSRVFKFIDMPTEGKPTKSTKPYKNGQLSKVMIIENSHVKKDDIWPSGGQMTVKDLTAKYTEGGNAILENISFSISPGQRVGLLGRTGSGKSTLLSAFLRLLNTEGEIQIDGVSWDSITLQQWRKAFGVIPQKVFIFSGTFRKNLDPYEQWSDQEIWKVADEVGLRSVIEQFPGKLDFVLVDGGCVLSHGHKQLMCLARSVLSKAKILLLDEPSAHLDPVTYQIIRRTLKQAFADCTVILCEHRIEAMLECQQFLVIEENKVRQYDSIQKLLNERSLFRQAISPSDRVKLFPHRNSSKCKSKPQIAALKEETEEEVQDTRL

Row | SMILES | Activity 10 μM | Activity 3 μM
1 | COc1cccc(-c2ccc(=O)n(CC(=O)Nc3cc(F)cc(F)c3)n2)c1 [Compound 16, N-(3,5-Difluorophenyl)-2-[3-(3-methoxyphenyl)-6-oxo-1,6-dihydropyridazin-1-yl]acetamide] | + (activity <150% of a CFTR amplifier with compound at concentration shown and amplifier at 3 μM) | –
2 | CC(C(=O)Nc1ccc(C(F)(F)F)cc1)n1nc(-c2cccc(OCc3ccccc3)c2)ccc1=O (stereo not drawn) [Compound 50, 2-[3-[3-(Benzyloxy)phenyl]-6-oxo-1,6-dihydropyridazin-1-yl]-N-[4-(trifluoromethyl)phenyl]propanamide] | ++ (activity >150% of a CFTR amplifier with compound at concentration shown and amplifier at 3 μM) | ++ (activity >150% of a CFTR amplifier with compound at concentration shown and amplifier at 3 μM)
3 | CC(C(=O)Nc1cc(F)cc(F)c1)n1nc(-c2cccc(-c3ccccc3)c2)ccc1=O (stereo not drawn) [Compound 5, N-(3,5-Difluorophenyl)-2-[6-oxo-3-(3-phenylphenyl)-1,6-dihydropyridazin-1-yl]propanamide] | + (activity <150% of a CFTR amplifier with compound at concentration shown and amplifier at 3 μM) | + (activity <150% of a CFTR amplifier with compound at concentration shown and amplifier at 3 μM)
4 | CCC(C(=O)Nc1ccc(C(F)(F)F)cc1)n1nc(-c2cccc(OC)c2)ccc1=O (stereo not drawn) [Compound 38, 2-[3-(3-Methoxyphenyl)-6-oxo-1,6-dihydropyridazin-1-yl]-N-[4-(trifluoromethyl)phenyl]butanamide] | ++ (activity >150% of a CFTR amplifier with compound at concentration shown and amplifier at 3 μM) | ++ (activity >150% of a CFTR amplifier with compound at concentration shown and amplifier at 3 μM)
5 | COc1cccc(-c2ccc(=O)n(C(C)C(=O)Nc3ccc(C(F)(F)F)cc3F)n2)c1 (stereo not drawn) [Compound 42, N-(2-Fluoro-4-(trifluoromethyl)phenyl)-2-(3-(3-methoxyphenyl)-6-oxopyridazin-1(6H)-yl)propanamide] | ++ (activity >150% of a CFTR amplifier with compound at concentration shown and amplifier at 3 μM) | ++ (activity >150% of a CFTR amplifier with compound at concentration shown and amplifier at 3 μM)
6 | CC(C(=O)Nc1ccc(C(F)(F)F)cc1)n1nc(-c2cccc(Cl)c2)ccc1=O (stereo not drawn) [Compound 30, 2-[3-(3-Chlorophenyl)-6-oxo-1,6-dihydropyridazin-1-yl]-N-[4-(trifluoromethyl)phenyl]propanamide] | ++ (activity >150% of a CFTR amplifier with compound at concentration shown and amplifier at 3 μM) | ++ (activity >150% of a CFTR amplifier with compound at concentration shown and amplifier at 3 μM)
7 | COc1cccc(-c2ccc(=O)n(C(C(=O)Nc3ccc(C(F)(F)F)cc3)c3ccccc3)n2)c1 (stereo not drawn) [Compound 40, 2-(3-(3-Methoxyphenyl)-6-oxopyridazin-1(6H)-yl)-2-phenyl-N-(4-(trifluoromethyl)phenyl)acetamide] | + (activity <150% of a CFTR amplifier with compound at concentration shown and amplifier at 3 μM) | ++ (activity >150% of a CFTR amplifier with compound at concentration shown and amplifier at 3 μM)
8 | CC(C(=O)Nc1cc(F)cc(F)c1)n1nc(-c2cccc(Cl)c2)ccc1=O (stereo not drawn) [Compound 1, 2-[3-(3-Chlorophenyl)-6-oxo-1,6-dihydropyridazin-1-yl]-N-(3,5-difluorophenyl)propanamide] | ++ (activity >150% of a CFTR amplifier with compound at concentration shown and amplifier at 3 μM) | ++ (activity >150% of a CFTR amplifier with compound at concentration shown and amplifier at 3 μM)
